Results published in patent US7468384B2, “Microbicidal composition” (Rohm and Haas Company, priority 2004, dated 2008).
Where two headings read alike, the source gives them in different places.

What was measured:
Assay type in all cases: cell-based
[1] = test system: Candida albicans (C. albicans—ATCC 10231); test: Synergy test, microtiter plate high resolution MIC assay, yeast; details: C. albicans 10231, PDB; for MIC: Candida albicans, ATCC10231; for Qb: alone or mixed with BIT
Text: (§1) One measure of synergism is the industrially accepted method described by Kull, F. C.; Eisman, P. C.; Sylwestrowicz, H. D. and Mayer, R. L., in Applied Microbiology 9:538-541 (1961), using the ratio determined by the formula: Qa/QA+Qb/QB=Synergy Index (“SI”) wherein: • QA=concentration of compound A (first component) in ppm, acting alone, which produced an end point (MIC of Compound A). • Qa=concentration of compound A in ppm, in the mixture, which produced an end point. • QB=concentration of compound B (second component) in ppm, acting alone, which produced an end point (MIC of Compound B). • Qb=concentration of compound B in ppm, in the mixture, which produced an end point.
(§2) When the sum of Qa/QA and Qb/QB is greater than one, antagonism is indicated. […] The lower the SI, the greater the synergy shown by that particular mixture. The minimum inhibitory concentration (MIC) of a microbicide is the lowest concentration tested under a specific set of conditions that prevents the growth of added microorganisms.
(§3) Synergy tests were conducted using standard microtiter plate assays with media designed for optimal growth of the test microorganism. Soybean Casein Digest Broth (Tryptic Soy Broth, TSB medium) or minimal salt medium supplemented with 0.2% glucose and 0.1% yeast extract (M9GY medium) was used for testing bacteria; Potato Dextrose Broth (PDB medium) was used for testing yeast and mold. In this method, a wide range of combinations of microbicides was tested by conducting high resolution MIC assays in the presence of various concentrations of MI. High resolution MICs were determined by adding varying amounts of microbicide to one column of a microtitre plate and doing subsequent ten-fold dilutions using an automated liquid handling system to obtain a series of endpoints ranging from 2 ppm to 10,000 ppm active ingredient.
(§4) For MI combinations, the synergy of the combinations of the present invention was determined against two bacteria, Escherichia coli (E. coli—ATCC #8739) or Pseudomonas aeruginosa (P. aeruginosa—ATCC #15442), a yeast, Candida albicans (C. albicans—ATCC 10231), and a mold, Aspergillus niger (A. niger—ATCC 16404). The bacteria were used at a concentration of about 5×10^6 bacteria per mL and the yeast and mold at 5×10^5 fungi per mL. These microorganisms are representative of natural contaminants in many consumer and industrial applications. […] (bacteria).
(§5) For BIT combinations, the synergy of the combinations of the present invention was determined against a bacterium, Pseudomonas aeruginosa (P. aeruginosa—ATCC #15442), a yeast, Candida albicans (C. albicans—ATCC 10231), and a mold, Aspergillus niger (A. niger—ATCC 16404). The bacteria were used at a concentration of about 5×10^6 bacteria per mL and the yeast and mold at 5×10^5 fungi per mL. These microorganisms are representative of natural contaminants in many consumer and industrial applications. […] (yeast and mold) or 30° C. (bacteria).

[2] = test system: Pseudomonas aeruginosa (P. aeruginosa—ATCC #15442); test: Synergy test, microtiter plate high resolution MIC assay, bacterium; design: key to SI (calculated synergy index) / SI (synergy index): SI = Qa/QA + Qb/QB (mixture vs. alone end-point concentrations); details: for MIC: Pseudomonas aeruginosa, ATCC15442; for SI (calculated synergy index) / Qb: end-point activity (MIC) of second component in the mixture (alone, QB, where Qa = 0): Table 5; for Qb: end-point activity (MIC) of second component in the mixture (alone, QB, where Qa = 0): B = Linoleamidopropyl PG-dimonium chloride phosphate; for Qb: alone or mixed with BIT
Text: as §1, §2, §3, §4, §5

S. aureus 6538 = test: as above; details: S. aureus 6538, TSB
Text: as §1, §2, §3

[3] = test system: Escherichia coli (E. coli—ATCC #8739); test: as above; details: E. coli 8739, M9GY; for Qb: alone or mixed with BIT
Text: as §1, §2
as §3, with “In this method, a wide range of combinations of microbicides was tested by conducting high resolution MIC assays in the presence of various concentrations of MI.” left out
as §4

[4] = test system: Aspergillus niger (A. niger—ATCC 16404); test: Synergy test, microtiter plate high resolution MIC assay, mold; design: key to SI (calculated synergy index) / SI (synergy index): SI = Qa/QA + Qb/QB (mixture vs. alone end-point concentrations); details: A. niger 16404, PDB; for MIC: Aspergillus niger
Text: as §1, §2, §3, §4, §5

[5] = P. aeruginosa 15442, M9GY, 48 hours
[6] = P. aeruginosa 15442, TSB, 48 hours

CCCCC(CC)CN1CN(CC(CC)CCCC)CC(C)(N)C1 (stereo not shown) [Hexetidine]
MIC ([1]; 72 hours, read-out: MIC of component acting alone (QA / QB)): 2000 µg/mL | MIC ([2]; P. aeruginosa 15442, TSB, 24 hours, read-out: MIC of component acting alone (QA / QB)): 10000 µg/mL | MIC (S. aureus 6538; Staphylococcus aureus, 48 hours, read-out: MIC of component acting alone (QA / QB)): 4 µg/mL

Cl/C=C\C[N+]12CN3CN(CN(C3)C1)C2.[Cl-] [cis-1-(3-chloroallyl)-3,5,7-triaza-1-azoniaadamantane chloride]
MIC ([1]; Table 24, Cis-1-(3-chloroallyl)-3,5,7-triaza-1-azoniaadamantane chloride with BIT, 24 hours, alone where Qa = 0, read-out: Qb (second component at end point, MIC)): 800 µg/mL | SI (synergy index) ([1]; Table 24, 24 hours): 1.00 | MIC ([2]; Table 24, Cis-1-(3-chloroallyl)-3,5,7-triaza-1-azoniaadamantane chloride with BIT, P. aeruginosa 15442, M9GY, 24 hours, alone where Qa = 0, read-out: Qb (second component at end point, MIC)): 400 µg/mL | SI (synergy index) ([2]; Table 24, P. aeruginosa 15442, M9GY, 24 hours): 1.00 | MIC ([3]; Escherichia coli, ATCC8739, Table 24, Cis-1-(3-chloroallyl)-3,5,7-triaza-1-azoniaadamantane chloride with BIT, 48 hours, alone where Qa = 0, read-out: Qb (second component at end point, MIC)): 400 µg/mL | SI (synergy index) ([3]; Table 24, 48 hours): 1.00 | MIC ([4]; ATCC16404, 72 h, Table 24, Cis-1-(3-chloroallyl)-3,5,7-triaza-1-azoniaadamantane chloride with BIT, 3 days, alone where Qa = 0, read-out: Qb (second component at end point, MIC)): 800 µg/mL | SI (synergy index) ([4]; Table 24, 3 days): 1.00

Linoleamidopropyl PG-dimonium chloride phosphate
SI (calculated synergy index) ([1]; Table 5, 24 hours): 1.00 | Qb: end-point activity (MIC) of second component in the mixture (alone, QB, where Qa = 0) ([1]; Table 5, 24 hours, B = Linoleamidopropyl PG-dimonium chloride phosphate): 8000 ppm | SI (calculated synergy index) [2, 5]: 1.00 | Qb: end-point activity (MIC) of second component in the mixture (alone, QB, where Qa = 0) [2, 5]: 10000 ppm | SI (calculated synergy index) [2, 6]: 1.00 | Qb: end-point activity (MIC) of second component in the mixture (alone, QB, where Qa = 0) [2, 6]: 10000 ppm | Qb (second component at end point, MIC) ([2]; Table 21, Linoleamidopropyl PG-dimonium chloride phosphate with BIT, P. aeruginosa 15442, M9GY, 48 hours, alone where Qa = 0): 10000 ppm | SI (synergy index) ([2]; Table 21, P. aeruginosa 15442, M9GY, 48 hours): 1.00 | SI (calculated synergy index) ([4]; Table 5, 7 days): 1.00 | Qb: end-point activity (MIC) of second component in the mixture (alone, QB, where Qa = 0) ([4]; Table 5, 7 days, B = Linoleamidopropyl PG-dimonium chloride phosphate): 6000 ppm | SI (synergy index) ([4]; Table 21, 4 days): 1.00 | Qb (second component at end point, MIC) ([4]; Table 21, Linoleamidopropyl PG-dimonium chloride phosphate with BIT, 4 days, alone where Qa = 0): 3000 ppm | SI (calculated synergy index) (S. aureus 6538; Table 5, 48 hours): 1.00 | Qb: end-point activity (MIC) of second component in the mixture (alone, QB, where Qa = 0) (S. aureus 6538; Table 5, 48 hours, B = Linoleamidopropyl PG-dimonium chloride phosphate): 40 ppm

O=C([O-])c1ccccc1.[Na+] [sodium benzoate]
SI (synergy index) ([1]; Table 26, 48 hours): 1.00 | Qb (second component at end point, MIC) ([1]; Table 26, sodium benzoate with BIT, 48 hours, alone where Qa = 0): 2000 ppm | SI (synergy index) ([2]; Table 26, P. aeruginosa 15442, M9GY, 24 hours): 1.00 | Qb (second component at end point, MIC) ([2]; Table 26, sodium benzoate with BIT, P. aeruginosa 15442, M9GY, 24 hours, alone where Qa = 0): 10000 ppm | SI (synergy index) ([3]; Table 26, 24 hours): 1.00 | Qb (second component at end point, MIC) ([3]; Table 26, sodium benzoate with BIT, 24 hours, alone where Qa = 0): 10000 ppm | SI (synergy index) ([4]; Table 26, 1 week): 1.00 | Qb (second component at end point, MIC) ([4]; Table 26, sodium benzoate with BIT, 1 week, alone where Qa = 0): 6000 ppm

OCc1ccccc1 [Benzyl alcohol]
Qb ([1]; benzyl alcohol concentration giving end point (MIC), 48 hours): 4000 ppm | SI ([1]; synergy index BIT + benzyl alcohol, 48 hours): 1.00 | Qb ([2]; benzyl alcohol concentration giving end point (MIC), P. aeruginosa 15442, M9GY, 48 hours): 200 ppm | SI ([2]; synergy index BIT + benzyl alcohol, P. aeruginosa 15442, M9GY, 48 hours): 1.00 | Qb ([3]; benzyl alcohol concentration giving end point (MIC), 24 hours): 4000 ppm | SI ([3]; synergy index BIT + benzyl alcohol, 24 hours): 1.00 | MIC ([4]; ATCC16404, 168 h, benzyl alcohol concentration giving end point (MIC), alone or mixed with BIT, 1 week, read-out: Qb): 5000 µg/mL | SI ([4]; synergy index BIT + benzyl alcohol, 1 week): 1.00

O=C(NCO)N(CO)C1(CO)C(=O)NC(=O)N1CO (stereo not shown) [Diazolidinyl urea]
Qb ([1]; diazolidinyl urea concentration giving end point (MIC), 24 hours): 2000 ppm | SI ([1]; synergy index BIT + diazolidinyl urea, 24 hours): 1.00 | Qb ([2]; diazolidinyl urea concentration giving end point (MIC), P. aeruginosa 15442, M9GY, 48 hours): 80 ppm | SI ([2]; synergy index BIT + diazolidinyl urea, P. aeruginosa 15442, M9GY, 48 hours): 1.00 | Qb ([3]; diazolidinyl urea concentration giving end point (MIC), 48 hours): 100 ppm | SI ([3]; synergy index BIT + diazolidinyl urea, 48 hours): 1.00 | MIC ([4]; ATCC16404, 72 h, diazolidinyl urea concentration giving end point (MIC), alone or mixed with BIT, 3 days, read-out: Qb): 1000 µg/mL | SI ([4]; synergy index BIT + diazolidinyl urea, 3 days): 1.00

N=C(N)c1ccc(OCCCCCCOc2ccc(C(=N)N)cc2)cc1.O=S(=O)(O)CCO.O=S(=O)(O)CCO [Hexamidine diisethionate]
MIC of component acting alone (QA / QB) ([1]; 48 hours): 2000 ppm | MIC of component acting alone (QA / QB) ([2]; P. aeruginosa 15442, TSB, 72 hours): 2000 ppm | MIC of component acting alone (QA / QB) (S. aureus 6538; 72 hours): 4000 ppm
